Test results: ChEMBL document CHEMBL4177736, “Monoterpene indole alkaloid azine derivatives as MDR reversal agents” (Bioorg Med Chem, 2018)
Values belong to the compound of their own block, whether it stands above or below them. The source made the active and inactive calls. The rule behind the calls is not given here.

Key:
NIH3T3 [1] = test: Cytotoxicity against MDR1-expressing mouse NIH/3T3 cells assessed as growth inhibition at 20 uM after 72 hrs by MTT assay; assay type: functional, cell-based
NIH3T3 [2] = test: Cytotoxicity against mouse NIH/3T3 cells assessed as reduction in cell viability at 20 uM after 72 hrs by MTT assay; assay type: cell-based; settings: nih3t3, 72 h
[3] = Inhibition of P-gp (unknown origin) expressed in mouse NIH/3T3 cells assessed as reduction in rhodamine 123 efflux at 20 uM incubated for 30 mins by flow cytometric analysis relative to control; assay type: cell-based; settings: Homo sapiens
BCRP (ABCG2) = biological target: T1, BCRP (ABCG2) (Homo sapiens, UniProt Q9UNQ0); test: Inhibition of BCRP (unknown origin) expressed in HEK293 cells assessed as reduction in mitoxantrone efflux at 20 uM incubated for 30 mins by flow cytometric analysis relative to control; assay type: cell-based; settings: HEK293 cells expressing BCRP, probe mitoxantrone
T1 sequence (Q9UNQ0 whole entry): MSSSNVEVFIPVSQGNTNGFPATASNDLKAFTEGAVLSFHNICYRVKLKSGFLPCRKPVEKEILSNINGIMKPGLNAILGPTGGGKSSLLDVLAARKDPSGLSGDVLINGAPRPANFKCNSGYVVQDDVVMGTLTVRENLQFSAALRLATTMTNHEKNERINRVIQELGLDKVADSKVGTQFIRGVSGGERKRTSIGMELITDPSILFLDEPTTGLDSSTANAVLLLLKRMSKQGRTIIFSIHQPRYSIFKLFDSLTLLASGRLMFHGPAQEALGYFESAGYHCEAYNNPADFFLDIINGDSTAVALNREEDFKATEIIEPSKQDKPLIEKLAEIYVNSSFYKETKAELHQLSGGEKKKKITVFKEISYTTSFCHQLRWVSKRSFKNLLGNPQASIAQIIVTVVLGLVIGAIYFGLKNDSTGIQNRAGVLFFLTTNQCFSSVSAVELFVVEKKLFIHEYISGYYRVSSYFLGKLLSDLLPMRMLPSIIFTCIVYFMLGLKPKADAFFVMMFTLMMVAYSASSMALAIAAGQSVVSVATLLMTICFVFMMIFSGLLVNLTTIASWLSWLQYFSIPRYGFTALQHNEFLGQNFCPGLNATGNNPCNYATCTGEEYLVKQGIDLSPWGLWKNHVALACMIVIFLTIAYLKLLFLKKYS

Homo sapiens [4] = species: Homo sapiens; test: Inhibition of P-gp (unknown origin) expressed in mouse NIH/3T3 cells assessed as potentiation of paclitaxel-induced cytotoxicity by measuring decrease in cell viability at 10 uM after 72 hrs by MTT assay; assay type: cell-based
BHK-21 [5] = test: Cytotoxicity against MRP1-expressing BHK21 cells assessed as growth inhibition at 20 uM after 72 hrs by MTT assay; assay type: functional; settings: Mesocricetus auratus; for inhibition of growth at 20 µM: BHK-21, 72 h, read-out: GI
MRP1 = MRP1 (Homo sapiens, UniProt P33527); test: Inhibition of MRP1 (unknown origin) expressed in HEK293FlpIN cells assessed as reduction in calcein-AM efflux at 20 uM incubated for 30 mins by flow cytometric analysis relative to control; assay type: cell-based; settings: HEK293FlpIN cells expressing MRP1, probe calcein-AM
BHK-21 [6] = test: Cytotoxicity against wild type BHK21 cells assessed as reduction in cell viability at 20 uM after 72 hrs by MTT assay; assay type: cell-based, Mesocricetus auratus; settings: hamster, bhk-21, 72 h
Homo sapiens [7] = species: Homo sapiens; settings: 5 uM
Description: Inhibition of P-gp (unknown origin) expressed in mouse NIH/3T3 cells assessed as reduction in rhodamine 123 efflux at 5 uM incubated for 30 mins by flow cytometric analysis relative to control

[8] = biological target: T2, Multidrug resistance-associated protein 1 (Homo sapiens, UniProt P33527); test: Inhibition of MRP1 (unknown origin) expressed in HEK293FlpIN cells assessed as reduction in calcein-AM efflux incubated for 30 mins by flow cytometric analysis; assay type: cell-based
[9] = Cytotoxicity against HEK293FlpIN cells assessed as reduction in cell viability at 10 to 20 uM after 72 hrs by MTT assay; assay type: cell-based; settings: human
[10] = biological target: T2, Multidrug resistance-associated protein 1; test: Inhibition of MRP1 (unknown origin) expressed in HEK293FlpIN cells assessed as potentiation of vincristine-induced cytotoxicity by measuring decrease in cell growth at 10 to 20 uM after 72 hrs by MTT assay relative to control; assay type: cell-based; set-up: scale not given: the % may be the effect or the level left
[11] = biological target: T2, Multidrug resistance-associated protein 1; test: Inhibition of MRP1 (unknown origin) expressed in BHK21 cells assessed as GSH efflux at 20 uM incubated for 3 hrs measured every 30 secs for 2 mins by GSH reductase enzyme based assay (reference value: 100%); assay type: cell-based; settings: 3 h, 20 µM
Homo sapiens [12] = species: Homo sapiens; test: Cytotoxicity against MRP1-expressing HEK293FlpIN cells assessed as reduction in cell viability at 10 to 20 uM after 72 hrs by MTT assay; assay type: functional, cell-based
Homo sapiens [13] = species: Homo sapiens; test: Inhibition of P-gp (unknown origin) expressed in mouse NIH/3T3 cells assessed as potentiation of paclitaxel-induced cytotoxicity by measuring decrease in cell viability at 10 to 20 uM after 72 hrs by MTT assay; assay type: cell-based
Homo sapiens [14] = species: Homo sapiens; test: Inhibition of P-gp (unknown origin) expressed in mouse NIH/3T3 cells assessed as reduction in rhodamine 123 efflux at 10 uM incubated for 30 mins by flow cytometric analysis relative to control; assay type: cell-based
Homo sapiens [15] = species: Homo sapiens; test: Inhibition of P-gp (unknown origin) expressed in mouse NIH/3T3 cells assessed as reduction in rhodamine 123 efflux at 1 uM incubated for 30 mins by flow cytometric analysis relative to control; assay type: cell-based

Sequence of MRP1 (P33527 whole entry): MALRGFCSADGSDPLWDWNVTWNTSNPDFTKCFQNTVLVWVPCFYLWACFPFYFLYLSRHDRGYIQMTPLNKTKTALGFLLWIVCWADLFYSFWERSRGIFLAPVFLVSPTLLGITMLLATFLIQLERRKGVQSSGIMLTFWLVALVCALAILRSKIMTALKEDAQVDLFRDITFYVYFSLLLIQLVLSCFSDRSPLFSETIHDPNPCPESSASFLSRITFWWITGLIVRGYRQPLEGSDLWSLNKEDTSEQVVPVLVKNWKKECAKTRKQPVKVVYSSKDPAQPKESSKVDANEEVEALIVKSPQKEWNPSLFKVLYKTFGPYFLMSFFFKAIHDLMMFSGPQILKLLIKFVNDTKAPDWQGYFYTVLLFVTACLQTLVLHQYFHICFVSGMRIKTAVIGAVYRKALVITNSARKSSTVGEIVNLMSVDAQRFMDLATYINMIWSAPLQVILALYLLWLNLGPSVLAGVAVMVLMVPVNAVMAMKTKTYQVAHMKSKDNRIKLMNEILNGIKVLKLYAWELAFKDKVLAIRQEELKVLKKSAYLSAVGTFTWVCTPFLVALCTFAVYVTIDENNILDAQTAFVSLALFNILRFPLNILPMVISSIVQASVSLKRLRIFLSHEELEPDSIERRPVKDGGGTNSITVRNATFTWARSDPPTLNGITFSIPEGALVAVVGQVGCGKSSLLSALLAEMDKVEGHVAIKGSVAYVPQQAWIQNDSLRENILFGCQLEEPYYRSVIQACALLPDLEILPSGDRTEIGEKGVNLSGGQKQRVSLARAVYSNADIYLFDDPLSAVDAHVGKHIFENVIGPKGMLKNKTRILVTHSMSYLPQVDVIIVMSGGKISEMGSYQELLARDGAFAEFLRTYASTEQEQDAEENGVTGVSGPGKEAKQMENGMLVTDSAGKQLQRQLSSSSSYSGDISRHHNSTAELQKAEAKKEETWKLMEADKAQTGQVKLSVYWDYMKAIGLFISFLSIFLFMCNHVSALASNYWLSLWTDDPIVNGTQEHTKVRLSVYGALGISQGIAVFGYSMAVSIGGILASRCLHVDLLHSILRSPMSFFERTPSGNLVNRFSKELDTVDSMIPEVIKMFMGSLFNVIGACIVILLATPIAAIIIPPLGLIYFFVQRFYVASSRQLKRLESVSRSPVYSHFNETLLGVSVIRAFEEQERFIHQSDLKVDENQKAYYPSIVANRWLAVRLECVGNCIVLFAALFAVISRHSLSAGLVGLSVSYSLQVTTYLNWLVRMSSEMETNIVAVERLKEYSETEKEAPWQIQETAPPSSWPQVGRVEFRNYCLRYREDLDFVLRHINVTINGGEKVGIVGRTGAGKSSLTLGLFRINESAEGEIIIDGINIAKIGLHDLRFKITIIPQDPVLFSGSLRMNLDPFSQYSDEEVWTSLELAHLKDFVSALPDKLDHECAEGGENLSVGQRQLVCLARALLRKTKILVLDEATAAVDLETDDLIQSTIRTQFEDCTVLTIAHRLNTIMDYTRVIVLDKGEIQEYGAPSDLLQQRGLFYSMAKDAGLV
T2 sequence (P33527 whole entry): as above

inhibition at 0.5 h, 20 µM (MRP1): 8.8%
SMILES: CC[C@@H]1CN(C)[C@H]2Cc3c([nH]c4ccccc34)/C(=N/N=C\c3ccc(C)cc3)C[C@H]1[C@H]2C(=O)OC
growth inhibition (GI) (NIH3T3 [1]): Active | Activity (NIH3T3 [2]): Non-Toxic | inhibition [3]: 73.8% | inhibition at 0.5 h, 20 µM (BCRP (ABCG2)): 1.7% | inhibition (Homo sapiens [4]): Active | inhibition of growth at 20 µM (BHK-21 [5]): 90 to 98% | Activity (BHK-21 [6]): Non-Toxic

SMILES: COc1cc2c(cc1OC)CN(CCc1ccc(NC(=O)c3cccc4c(=O)c5cccc(OC)c5[nH]c34)cc1)CC2
inhibition (Homo sapiens [7]): 100%

IC50 [8]: > 1000 nM | inhibition (INH) ([8]; human, 0.5 h): Dose-dependent effect | inhibition (INH) [11]: Not Active | inhibition at 0.5 h, 20 µM (MRP1): 87.3%
SMILES: CC[C@@H]1CN(C)[C@H]2Cc3c([nH]c4ccccc34)/C(=N/N=C\c3ccc(O)c(OC)c3)C[C@H]1[C@H]2C(=O)OC
Activity [9]: Non-Toxic | growth inhibition (GI) (NIH3T3 [1]): Active | Activity [10]: 60% | Activity (NIH3T3 [2]): Non-Toxic | inhibition [3]: 24.3% | inhibition at 0.5 h, 20 µM (BCRP (ABCG2)): 9% | growth inhibition (GI) (BHK-21 [5]): Active | inhibition (Homo sapiens [12]): inactive | Activity (BHK-21 [6]): Non-Toxic

inhibition at 0.5 h, 20 µM (MRP1): 20.4%
SMILES: CC[C@H]1CN(C)[C@H]2Cc3c([nH]c4ccccc34)/C(=N/N=C\c3ccc(C)cc3)C[C@H]1[C@H]2C(=O)OC
inhibition (Homo sapiens [13]): Active | growth inhibition (GI) (NIH3T3 [1]): Active | Activity (NIH3T3 [2]): Non-Toxic | inhibition [3]: 86.1% | inhibition at 0.5 h, 20 µM (BCRP (ABCG2)): 2.4% | inhibition of growth at 20 µM (BHK-21 [5]): 90 to 98% | Activity (BHK-21 [6]): Non-Toxic

inhibition at 0.5 h, 20 µM (MRP1): 70.5%
SMILES: CC[C@H]1CN(C)[C@H]2Cc3c([nH]c4ccccc34)/C(=N/N=C\c3c[nH]c4ccccc34)C[C@H]1[C@H]2C(=O)OC
growth inhibition (GI) (NIH3T3 [1]): Active | inhibition (Homo sapiens [14]): 73% | Activity (NIH3T3 [2]): Non-Toxic | inhibition [3]: 116% | inhibition at 0.5 h, 20 µM (BCRP (ABCG2)): 4.9% | inhibition of growth at 20 µM (BHK-21 [5]): 90 to 98% | inhibition (Homo sapiens [15]): 38% | Activity (BHK-21 [6]): Non-Toxic

inhibition at 0.5 h, 20 µM (MRP1): 50.2%
SMILES: CC[C@@H]1CN(C)[C@H]2Cc3c([nH]c4ccccc34)/C(=N/N=C\c3c[nH]c4ccccc34)C[C@H]1[C@H]2C(=O)OC
growth inhibition (GI) (NIH3T3 [1]): Active | inhibition (Homo sapiens [14]): 70% | Activity (NIH3T3 [2]): Non-Toxic | inhibition [3]: 102% | inhibition at 0.5 h, 20 µM (BCRP (ABCG2)): 4.2% | inhibition of growth at 20 µM (BHK-21 [5]): 90 to 98% | inhibition (Homo sapiens [15]): 18% | Activity (BHK-21 [6]): Non-Toxic
